Assay results reported in patent publication US8546565B2, “Quinazolinamide derivatives” (Merck Patent Gesellschaft, priority 2008, dated 2013).

Molecular target: T1, Recombinant human HSP90a (Homo sapiens, UniProt P07900)
T1 construct: host or cells: E. coli
Assay: HSP90 radioligand filter binding test ([3H]17AAG competition)
Settings: [3H]17AAG 0.08 μM, HSP90 1.5 μg/assay, 22° C., 30 min; read-out: IC50 (HSP90 inhibition)
Text: Test Method for the Measurement of HSP90 Inhibitors
The binding of geldanamycin or 17-allylamino-17-demethoxygeldanamycin (17AAG) to HSP90 and competitive inhibition thereof can be utilised in order to determine the inhibitory activity of the compounds according to the invention (Carreras et al. 2003, Chiosis et al. 2002).
In the specific case, a radioligand filter binding test is used. The radioligand used here is tritium-labelled 17-allylaminogeldanamycin, [3H]17AAG. This filter binding test allows a targeted search for inhibitors which interfere with the ATP binding site.
Recombinant human HSP90a (E. coli expressed, 95% purity);
[3H]17AAG (17-allylaminogeldanamycin, [allylamino-2,3-^3H. Specific activity: 1.11×10^12 Bq/mmol (Moravek, MT-1717);
HEPES filter buffer (50 mM HEPES, pH 7.0, 5 mM MgCl2, BSA 0.01%)
Multiscreen FB (1 μm) filter plate (Millipore, MAFBNOB 50).
The 96-well microtitre filter plates are firstly irrigated and coated with 0.1% of polyethylenimine.
The test is carried out under the following conditions:
Reaction temperature 22° C.
Reaction time: 30 min., shaking at 800 rpm
50 mM HEPES HCl, pH 7.0, 5 mM MgCl2, 0.01% (w/v) of BSA
At the end of the reaction, the supernatant in the filter plate is removed by suction with the aid of a vacuum manifold (Multiscreen Separation System, Millipore), and the filter is washed twice.
The filter plates are then measured in a beta counter (Microbeta, Wallac) with scintillator (Microscint 20, Packard).
“% of control” is determined from the “counts per minutes” values, and the IC-50 value of a compound is calculated therefrom.

| IC50 [µM] | Structure (SMILES) |
| --- | --- |
| 0.01 to 1 | CC(C)(C)NC(=O)c1cc(F)c(F)cc1-c1ccc2nc(N)nc(C(=O)N3Cc4ccccc4C3)c2c1 [Compound A81, 2-[2-Amino-4-(1,3-dihydroisoindole-2-carbonyl)quinazolin-6-yl]-N-tert-butyl-4,5-difluorobenzamide] |
| 0.01 to 1 | CC(CN(C)C)NS(=O)(=O)c1ccccc1-c1ccc2nc(N)nc(C(=O)N3Cc4ccccc4C3)c2c1 (stereo not drawn) [Compound A17] |
| 0.01 to 1 | CCN(CC)C(=O)c1cc(F)ccc1-c1ccc2nc(N)nc(C(=O)N3Cc4ccccc4C3)c2c1 [Compound A71, 2-[2-Amino-4-(1,3-dihydroisoindole-2-carbonyl)quinazolin-6-yl]-N,N-diethyl-5-fluorobenzamide] |
| 0.01 to 1 | CCN(CC)C(=O)c1ccc(F)cc1-c1ccc2nc(N)nc(C(=O)N3Cc4ccccc4C3)c2c1 [Compound A70] |
| 0.01 to 1 | C[C@H]1CCCN1C(=O)c1ccccc1-c1ccc2nc(N)nc(C(=O)N3Cc4ccccc4C3)c2c1 [Compound A72, {2-Amino-6-[2-((S)-2-methylpyrrolidine-1-carbonyl)phenyl]quinazolin-4-yl}-(1,3-dihydroisoindol-2-yl)methanone] |
| 1 to 10 | CNC(=O)C1CCCN1C(=O)c1ccccc1-c1ccc2nc(N)nc(C(=O)N3Cc4ccccc4C3)c2c1 (stereo not drawn) [Compound A50, 1-{2-[2-amino-4-(1,3-dihydroisoindole-2-carbonyl)quinazolin-6-yl]benzoyl}pyrrolidine-2-methylamide] |
| 0.01 to 1 | COC(=O)C1CCCN1C(=O)c1ccccc1-c1ccc2nc(N)nc(C(=O)N3Cc4ccccc4C3)c2c1 (stereo not drawn) [Compound A37, Methyl 1-{2-[2-amino-4-(1,3-dihydroisoindole-2-carbonyl)quinazolin-6-yl]benzoyl}pyrrolidine-2-carboxylate] |
| 0.01 to 1 | Nc1nc(C(=O)N2Cc3ccccc3C2)c2cc(-c3ccccc3S(=O)(=O)NCCO)ccc2n1 [Compound A11, 2-[2-Amino-4-(1,3-dihydroisoindole-2-carbonyl)quinazolin-6-yl]-N-(2-hydroxyethyl)benzenesulfonamide] |
| 0.01 to 1 | CCN(CCO)S(=O)(=O)c1ccc(F)cc1-c1ccc2nc(N)nc(C(=O)N3Cc4ccccc4C3)c2c1 [Compound A82] |
| 0.01 to 1 | CNC(=O)C1CCCN1S(=O)(=O)c1ccccc1-c1ccc2nc(N)nc(C(=O)N3Cc4ccccc4C3)c2c1 (stereo not drawn) [Compound A58, 1-{2-[2-amino-4-(1,3-dihydroisoindole-2-carbonyl)quinazolin-6-yl]benzenesulfonyl}pyrrolidine-2-methylamide] |
| 0.01 to 1 | Nc1nc(C(=O)N2Cc3ccccc3C2)c2cc(-c3ccccc3C(=O)N(CCO)CCO)ccc2n1 [Compound A73] |
| 0.01 to 1 | CN(C)C(=O)c1ccccc1-c1ccc2nc(N)nc(C(=O)N3Cc4ccccc4C3)c2c1 [Compound A38] |
| 0.01 to 1 | Nc1nc(C(=O)N2Cc3ccccc3C2)c2cc(-c3ccccc3C(=O)NC3CC3)ccc2n1 [Compound A48, 2-[2-Amino-4-(1,3-dihydroisoindole-2-carbonyl)quinazolin-6-yl]-N-cyclopropylbenzamide] |
| 0.01 to 1 | Nc1nc(C(=O)N2Cc3ccccc3C2)c2cc(-c3ccccc3C(=O)NC3CCC3)ccc2n1 [Compound A46, 2-[2-Amino-4-(1,3-dihydroisoindole-2-carbonyl)quinazolin-6-yl]-N-cyclobutylbenzamide] |
| 0.01 to 1 | Nc1nc(C(=O)N2Cc3ccccc3C2)c2cc(-c3ccccc3S(=O)(=O)N3CCCC3)ccc2n1 [Compound A32, {2-Amino-6-[2-(pyrrolidine-1-sulfonyl)phenyl]quinazolin-4-yl}-(1,3-dihydroisoindol-2-yl)methanone] |
